Like-named read-outs stand apart in the source and are kept apart here.
Legend:
OPM-2 cells = assay: Cell viability assay (OPM-2 cells), CCK-8; format: cell-based; conditions: WST, 5% FBS, read-out: OPM2 (WST, 5% FBS)
Procedure: Cell Viability Assay (OPM-2 Cells)
OPM-2 cells were obtained from Deutsche Sammlung von Mikroorganismen und Zellkulturen GmbH (DSMZ). […]
The effect of representative Compounds of the Disclosure on cell viability was determined using Cell Counting Kit-8 (CCK-8) assay (Shanghai Life iLab Bio Technology) according to the manufacturer's instructions. Each tested compound was serially diluted in culture medium, 100 μL of the compound dilution was added into 96-well plates. 100 μL of an OPM-2 cell suspension (20000 cells/well) in culture medium were seeded into the corresponding well of the plate and the cells were incubated at 37° C. in an atmosphere of 5% CO2 for 24 hours. In the next day, 20 μL of CCK-8 solution was added to each well of the plate and incubated for 4 hours.
The plates were read at 450 nm on the microplate spectrophotometer (SpectraMax plus 384, Molecular devices). The readings were normalized to the vehicle cells, and the IC50 was calculated by nonlinear regression analysis using GraphPad Prism 6 software.

NCI-H929 cells = assay: Cell viability assay (NCI-H929 cells), CCK-8; format: cell-based; conditions: WST, 5% FBS
Procedure: Cell Viability Assay (NCI-H929 Cells)
NCI-H929 cells were obtained from American Type Culture Collection (ATCC). Cells were maintained in the recommended culture medium (RPMI 1640) with 10% FBS and 0.05 mM BME at 37° C. and an atmosphere of 5% CO2.
The effect of Compounds on cell viability was determined using Cell Counting Kit-8 (CCK-8) assay according to the manufacturer's instructions. 95 μL of NCI-H929 cell suspension (20000 cells/well) in culture medium were seeded into 96-well plates and cultured 4 hrs. Each tested compound was serially diluted in DMSO, then 5 μL of the compound or DMSO was diluted in 95 μL medium once more. At last, 5 μL of the compound dilution was added to the corresponding well of the cell plate. After the addition of the tested compound, the cells were incubated at 37° C. in an atmosphere of 5% CO2 for 24 hrs. At the end, 10 μL of CCK-8 solution was added to each well of the plate and incubated for 1-4 hours. The plates were read at 450 nm on the microplate reader (BioTek Synergy 1MF). The readings were normalized to the vehicle cells, and the IC50 was calculated by nonlinear regression analysis using GraphPad Prism 6 software.

[1] = biological target: T1, Mcl-1 protein (residues 171-323) (Homo sapiens, UniProt Q07820); assay: Inhibition of Mcl-1 by fluorescence polarization (FP) competitive binding assay; conditions: FAM-Bid tracer 2 nM, Mcl-1 20 nM, 30 min
T1 construct: Tag-free Mcl-1 protein (residues 171-323) was used in the FP assay
T1 sequence (Q07820 171-323): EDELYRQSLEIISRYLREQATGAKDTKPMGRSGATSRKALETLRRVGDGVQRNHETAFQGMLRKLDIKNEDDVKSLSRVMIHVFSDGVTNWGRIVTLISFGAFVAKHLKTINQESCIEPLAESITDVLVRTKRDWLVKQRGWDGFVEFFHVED
Procedure: Inhibition of Mcl-1 by Fluorescence Polarization (FP) Assay.
The method used a fluorescein labelled peptide (FAM-Bid) which binds to the Mcl-1 protein leading to an increased anisotropy measured in milli-polarization (mP) values using a plate reader.
A 10-points serial dilution of each compound was prepared in DMSO and 5 μL solution was transferred into flat bottomed, 96-well back plate (final DMSO concentration 5%). 120 μL of Buffer (PBS, 0.01% BGG (Sigma Cat. #SRE0011), 0.01% Triton X-100), containing the Fluorescein labelled peptide (Final concentration 2 nM) and Mcl-1 protein (final concentration 20 nM) was then added. […] 10-points dose response curves were plotted with GraphPad software using Sigmoidal Dose-Response Model and the IC50 values were determined by nonlinear regression fitting of the competition curves.

IC50 (NCI-H929 cells; 24 h)	IC50 [1]	IC50 (NCI-H929 cells; Homo sapiens, NCI-H929, 24 h)	Structure (SMILES)	IC50 (OPM-2 cells; 24 h)	IC50 (OPM-2 cells; Homo sapiens, OPM-2, 24 h)
4400 nM			Cn1nc2cc1CSc1cc(c3ccccc3c1)OCCCc1c(C(=O)O)n(C)c3c(c(Cl)ccc13)-c1c(nn3c1CCC3)CSC2 (atropisomer, axis not shown) [Cpd. No. 53, (S)-(Z)-1^6-chloro-1^1,6^1-dimethyl-2^5,2^6-dihydro-1^1H,2^4H,6^1H-10-oxa-4,8-dithia-1(7,3)-indola-2(3,2)-pyrrolo[1,2-b]pyrazola-6(3,5)-pyrazola-9(3,1)-naphthalenacyclotridecaphane-1^2-carboxylic acid]	5720 nM	
	12 nM	361 nM	Cn1nc2cc1CSc1cc(cc(C(F)(F)F)c1)OCCCc1c(C(=O)O)n(C)c3c(c(Cl)ccc13)-c1c(nn3c1COCC3)CSC2 [Cpd. No. 33, (Z)-1^6-chloro-1^1,6^1-dimethyl-9^5-(trifluoromethyl)-2^6,2^7-dihydro-11H,2^4H,6^1H-10-oxa-4,8-dithia-2(3,2)-pyrazolo[5,1-c][1,4]oxazina-1(7,3)-indola-6(3,5)-pyrazola-9(1,3)-benzenacyclotridecaphane-1^2-carboxylic acid]		965 nM
	38 nM	535 nM	Cc1c(Cl)cc2cc1SCc1cc(nn1C)CSCc1nn3c(c1-c1c(Cl)ccc4c(c(C(=O)O)n(C)c14)CCCO2)CCCC3 [Cpd. No. 37, (Z)-1^6,9^5-dichloro-1^1,6^1,9^6-trimethyl-2^4,2^5,2^6 2^7-tetrahydro-1^1H,6^1-10-oxa-4,8-dithia-2(3,2)-pyrazolo[1,5-a]pyridina-1(7,3)-indola-6(3,5)-pyrazola-9(1,3)-benzenacyclotridecaphane-1^2-carboxylic acid]		1050 nM
123 nM	15 nM		Cn1nc2cc1CSc1cc(c3ccccc3c1)OCCCc1c(C(=O)O)n(C)c3c(c(Cl)ccc13)-c1c(nn3c1CCC3)CSC2 [compound 1, (Z)-1^6-chloro-1^1,6^1-dimethyl-2^5,2^6-dihydro-1^1H,2^4H,6^1H-10-oxa-4,8-dithia-1(7,3)-indola-2(3,2)-pyrrolo[1,2-b]pyrazola-6(3,5)-pyrazola-9(3,1)-naphthalenacyclotridecaphane-1^2-carboxylic acid]	437 nM	
	8.7 nM	5110 nM	Cn1c(C(=O)O)c2c3ccc(Cl)c(c31)-c1c(nn3c1CCC3)CSCc1csc(n1)CSc1cc(c3ccccc3c1)OCCC2 [compound 3, (Z)-1^6-chloro-1^1-methyl-2^5,2^6-dihydro-1^1H,2^4H-10-oxa-4,8-dithia-6(4,2)-thiazola-1(7,3)-indola-2(3,2)-pyrrolo[l,2-b]pyrazola-9(3,1)-naphthalenacyclotridecaphane-1^2-carboxylic acid]		6580 nM
	15 nM	234 nM	Cn1nc2cc1CSc1cc(c3ccccc3c1)OCCCc1c(C(=O)O)n(C)c3c(c(Cl)ccc13)-c1c(nn3c1OCC3)CSC2 [compound 6, (Z)-1^6-chloro-1^1,6^1-dimethyl-2^2,2^3-dihydro-1^1H,6^1H-10-oxa-4,8-dithia-2(7,6)-pyrazolo[5,1-b]oxazola-1(7,3)-indola-6(3,5)-pyrazola-9(3,1)-naphthalenacyclotridecaphane-1^2-carboxylic acid]		1350 nM
	13 nM	411 nM	Cn1nc2cc1CSc1cc(c3ccccc3c1)OCCCc1c(C(=O)O)n(C)c3c(c(Cl)ccc13)-c1c(nn3c1CCC3)CS(=O)(=O)C2 [compound 9, (Z)-1^6-chloro-1^1,6^1-dimethyl-2^5,2^6-dihydro-1‘H,2^4H,6^1H-10-oxa-4,8-dithia-1(7,3)-indola-2(3,2)-pyrrolo[1,2-b]pyrazola-6(3,5)-pyrazola-9(3,1)-naphthalenacyclotridecaphane-1^2-carboxylic acid 4,4-dioxide]		1170 nM
	10.5 nM	1970 nM	Cc1nc2oc1CSc1cc(c3ccccc3c1)OCCCc1c(C(=O)O)n(C)c3c(c(Cl)ccc13)-c1c(nn3c1CCC3)CSC2 [compound 10, 1^6-chloro-1^1,6^4-dimethyl-2^5,2^6-dihydro-1^1H,2^4H-10-oxa-4,8-dithia-6(2,5)-oxazola-1(7,3)-indola-2(3,2)-pyrrolo[1,2-naphthalenacyclotridecaphane-b]pyrazola-9(3,1)-1^2-carboxylic acid]		8810 nM
	10.9 nM	81 nM	Cn1nc2cc1CSc1cc(c3ccccc3c1)OCCCc1c(C(=O)O)n(C)c3c(c(Cl)ccc13)-c1c(nn3c1COCC3)CSC2 [compound 12, (Z)-1^6-chloro-1^1,6^1-dimethyl-2^6,2^7-dihydro-1^1H,2^4H,6^1H-10-oxa-4,8-dithia-2(3,2)-pyrazolo[5,1-c][1,4]oxazina-1(7,3)-indola-6(3,5)-pyrazola-9(3,1)-naphthalenacyclotridecaphane-1^2-carboxylic acid]		532 nM

Continued, molecule first:

Structure (SMILES)	IC50 (NCI-H929 cells; 24 h)	IC50 [1]	IC50 (NCI-H929 cells; Homo sapiens, NCI-H929, 24 h)	IC50 (OPM-2 cells; 24 h)	IC50 (OPM-2 cells; Homo sapiens, OPM-2, 24 h)
Cn1nc2cc1CSc1cc(c3ccccc3c1)OCCCc1c(C(=O)O)n(C)c3c(c(Cl)ccc13)-c1c(nn3c1CCC3)CSC2 (atropisomer, axis not shown) [Cpd. No. 52, (R)-(Z)-1^6-chloro-1^1,6^1-dimethyl-2^5,2^6-dihydro-1^1H,2^4H,6^1H-10-oxa-4,8-dithia-1(7,3)-indola-2(3,2)-pyrrolo[1,2-b]pyrazola-6(3,5)-pyrazola-9(3,1)-naphthalenacyclotridecaphane-1^2-carboxylic acid]	63 nM			353 nM	
Cn1c(C(=O)O)c2c3ccc(Cl)c(c31)-c1c(nn3c1CCC3)CSCc1coc(n1)CSc1cc(c3ccccc3c1)OCCC2 [compound 2, (Z)-1^6-chloro-1^1-methyl-2^5,2^6-dihydro-1^1H,2^4H-10-oxa-4,8-dithia-6(4,2)-oxazola-1(7,3)-indola-2(3,2)-pyrrolo[1,2-b]pyrazola-9(3,1)-naphthalenacyclotridecaphane-1^2-carboxylic acid]		14 nM	287 nM		1140 nM
Cn1c(C(=O)O)c2c3ccc(Cl)c(c31)-c1c(nn3c1CCC3)CSCC1=NC=C(CSc3cc(c4ccccc4c3)OCCC2)S1 [compound 4, 1^6-chloro-1^1methyl-2^5,2^6-dihydro-1^1H,2^4H-10-oxa-4,8-dithia-6(2,5)-thiazola-1(7,3)-indola-2(3,2)-pyrrolo[1,2-b]pyrazola-9(3,1)-naphthalenacyclotridecaphane-1^2-carboxylic acid]		19.1 nM			5300 nM
Cn1c(C(=O)O)c2c3ccc(Cl)c(c31)-c1c(nn3c1CCC3)CSCc1cc(on1)CSc1cc(c3ccccc3c1)OCCC2 [compound 8, (Z)-1^6-chloro-1^1-methyl-2^5,2^6-dihydro-1^1H,2^4H-10-oxa-4,8-dithia-6(3,5)-isoxazola-1(7,3)-indola-2(3,2)-pyrrolo[1,2-b]pyrazola-9(3,1)-naphthalenacyclotridecaphane-1^2-carboxylic acid]		10.2 nM	2940 nM		> 10000 nM
Cn1nc2nc1CSc1cc(c3ccccc3c1)OCCCc1c(C(=O)O)n(C)c3c(c(Cl)ccc13)-c1c(nn3c1CCC3)CSC2 [compound 13, (Z)-1^6-chloro-1^1,6^1-dimethyl-2^5,2^6-dihydro-1^1H,2^4H,6^1H-10-oxa-4,8-dithia-1(7,3)-indola-2(3,2)-pyrrolo[1,2-b]pyrazola-6(3,5)-triazola-9(3,1)-naphthalenacyclotridecaphane-1^2-carboxylic acid]		14.6 nM	4300 nM		> 10000 nM
Cn1nc2cc1CSc1cc(c3ccc(Cl)cc3c1)OCCCc1c(C(=O)O)n(C)c3c(c(Cl)ccc13)-c1c(nn3c1COCC3)CSC2 [compound 19, (Z)-1^6,9^6-dichloro-1^1,6^1-dimethyl-2^6,2^7-dihydro-1^1H,2^4H,6^1H-10-oxa-4,8-dithia-2(3,2)-pyrazolo[5,1-c][1,4]oxazina-1(7,3)-indola-6(3,5)-pyrazola-9(3,1)-naphthalenacyclotridecaphane-1^2-carboxylic acid]		16 nM	250 nM		384 nM
